Patent US20160002204A1 (Board of Regents, The University of Texas System, priority 2014, published 2016)
Blank lines part the entries; values can stand above or below the molecule they belong to.

Key:
[1] = tested on: A549 cells; experiment: A549 proliferation (viability) assay, Cell Titer Fluor, 72 hours; format: cell-based; details: Homo sapiens
Procedure: A549 cells were routinely maintained in RPMI 1640 media (Gibco catalog number 11875-093) supplemented with 10% dialyzed fetal bovine serum using a humidified incubator (37° C., 5% CO2 and ambient O2). In preparation for the viability assay, cells were inoculated into 384-well black CulturPlates (Perkin Elmer) at a density of 1000 cells/well in a volume of 40 uL. Following a 24-hour incubation at 37° C., 5% CO2 and ambient O2, cells were treated with compound (10 uL) in a final DMSO concentration of 0.5% (v/v). The microplates were then incubated for 72 hours (37° C., 5% CO2 and ambient O2). Cell Titer Fluor (Promega) was subsequently added (10 uL of 6× reagent) and mixed for 15 minutes at room temperature. The plates were then incubated for 30 minutes (37° C., 5% CO2 and ambient O2) and fluorescence was subsequently read on the Perkin Elmer Envision plate reader. EC50 values were calculated using a four-parameter logistic curve fit.

[2] = biological target: T1, GLS1 (purified recombinant human GAC) (Homo sapiens, UniProt O94925); experiment: GLS1 enzymatic activity assay (dual-coupled, Amplex UltraRed/resorufin); format: biochemical
T1 sequence (O94925 55-598 isoform O94925-3 limits assumed): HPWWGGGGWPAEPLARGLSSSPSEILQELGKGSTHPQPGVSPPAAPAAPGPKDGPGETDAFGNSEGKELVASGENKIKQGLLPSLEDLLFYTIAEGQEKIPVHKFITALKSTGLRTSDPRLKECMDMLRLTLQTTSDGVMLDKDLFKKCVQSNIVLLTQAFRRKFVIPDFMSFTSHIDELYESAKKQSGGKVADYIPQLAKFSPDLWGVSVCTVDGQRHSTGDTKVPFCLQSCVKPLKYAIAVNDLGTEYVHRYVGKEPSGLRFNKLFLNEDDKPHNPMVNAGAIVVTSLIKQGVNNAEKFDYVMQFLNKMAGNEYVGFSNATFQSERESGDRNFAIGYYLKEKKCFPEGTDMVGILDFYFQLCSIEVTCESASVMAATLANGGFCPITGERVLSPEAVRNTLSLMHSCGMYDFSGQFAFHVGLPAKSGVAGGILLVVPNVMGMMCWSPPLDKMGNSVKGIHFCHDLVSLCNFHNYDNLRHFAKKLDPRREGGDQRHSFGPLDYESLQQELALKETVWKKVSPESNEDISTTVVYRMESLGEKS
Procedure: GLS1 Enzymatic Activity Assay
The inhibition of purified recombinant human GAC by varying concentrations of inhibitors is assessed via a dual-coupled enzymatic assay. The glutamate produced by the glutaminase reaction is used by glutamate oxidase to produce α-ketoglutarate, ammonia, and hydrogen peroxide, with this hydrogen peroxide subsequently being used by horseradish peroxidase to produce resorufin in the presence of Amplex UltraRed. The assay buffer consisted of 50 mM Hepes (pH 7.4), 0.25 mM EDTA and 0.1 mM Triton X-100. GAC was incubated with potassium phosphate (10 minutes at room temperature) prior to incubation with inhibitor (10 minutes at room temperature). The final reaction conditions were as follows: 2 nM GAC, 50 mM potassium phosphate, 100 mU/mL glutamate oxidase (Sigma), 1 mM glutamine (Sigma), 100 mU/mL horseradish peroxidase (Sigma), 75 μM Amplex UltraRed (Life Technologies), and 1% (v/v) DMSO. The production of resorufin was monitored on a Perkin Elmer Envision plate reader (excitation 530 nm, emission 590 nm) either in a kinetics or endpoint mode (at 20 minutes). IC50 values were calculated using a four-parameter logistic curve fit.

SMILES: O=C(Cc1cccc(OC(F)(F)F)c1)Nc1ccc(CCCCn2ccc(NC(=O)OCc3ccccc3)nc2=O)nn1 [Example 24, Benzyl(2-oxo-1-(4-(6-(2-(3-(trifluoromethoxy)phenyl)acetamido)pyridazin-3-yl)butyl)-1,2-dihydropyrimidin-4-yl)carbamate]
EC50 [1]: < 100 nM
IC50 [2]: < 100 nM

SMILES: O=C(Nc1ccn(CCCCc2nnc(C(=O)NCc3cccc(OC(F)(F)F)c3)s2)c(=O)n1)OCc1ccccc1 [Example 28, Benzyl 2-oxo-1-(4-(5-(3-(trifluoromethoxy)benzylcarbamoyl)-1,3,4-thiadiazol-2-yl)butyl)-1,2-dihydropyrimidin-4-ylcarbamate]
EC50 [1]: 100 to 500 nM
IC50 [2]: < 100 nM

SMILES: O=C(Cc1ccccc1)Nc1nnc(CCCCn2cc3cc(Cc4ccccc4)[nH]c3nc2=O)s1 [Example 29, N-(5-(4-(6-benzyl-2-oxo-2,7-dihydro-3H-pyrrolo[2,3-d]pyrimidin-3-yl)butyl)-1,3,4-thiadiazol-2-yl)-7-phenylacetamide]
EC50 [1]: > 5000 nM
IC50 [2]: < 100 nM

SMILES: CNC(=O)c1cn(CCCCn2ccc(NC(=O)Cc3ccccc3)cc2=O)nn1 [Example 32, N-methyl-1-{4-[2-oxo-4-(2-phenylacetamido)-1,2-dihydropyridin-1-yl]butyl}-1H-1,2,3-triazole-4-carboxamide]
EC50 [1]: > 5000 nM
IC50 [2]: 500 to 5000 nM

SMILES: O=C(Cc1ccccc1)Nc1ccn(CCCCn2cc(C(=O)NCc3cccc(OC(F)(F)F)c3)nn2)c(=O)c1 [Example 33, 1-{4-[2-oxo-4-(2-phenylacetamido)-1,2-dihydropyridin-1-yl]butyl}-N-{[3-(trifluoromethoxy)phenyl]methyl}-1H-1,2,3-triazole-4-carboxamide]
EC50 [1]: 100 to 500 nM
IC50 [2]: < 100 nM

SMILES: O=C(Cc1ccccc1)Nc1ccn(CCCCn2cc(C(=O)NCC3CCCCC3)nn2)c(=O)c1 [Example 36, N-(cyclohexylmethyl)-1-{4-[2-oxo-4-(2-phenylacetamido)-1,2-dihydropyridin-1-yl]butyl}-1H-1,2,3-triazole-4-carboxamide]
EC50 [1]: 500 to 5000 nM
IC50 [2]: 100 to 500 nM

SMILES: CC(C)CC(=O)Nc1ccn(CCCCn2cc(C(=O)NCc3ccccn3)nn2)c(=O)c1 [Example 38, 1-{4-[4-(3-methylbutanamido)-2-oxo-1,2-dihydropyridin-1-yl]butyl}-N-(pyridin-2-ylmethyl)-1H-1,2,3-triazole-4-carboxamide]
EC50 [1]: > 5000 nM
IC50 [2]: 500 to 5000 nM

SMILES: O=C(Cc1cccc(OC(F)(F)F)c1)Nc1ccn(CCCCn2cc(C(=O)NCC3CCCCC3)nn2)c(=O)c1 [Example 41, N-(cyclohexylmethyl)-1-[4-(2-oxo-4-{2-[3-(trifluoro-methoxy)phenyl]acetamido}-1,2-dihydropyridin-1-yl)butyl]-1H-1,2,3-triazole-4-carboxamide]
EC50 [1]: 500 to 5000 nM
IC50 [2]: < 100 nM

SMILES: O=C(Nc1ccn(CCCCn2cc(C(=O)NCc3cccc(OC(F)(F)F)c3)nn2)c(=O)c1)OCc1ccccc1 [Example 42, benzyl N-(2-oxo-1-{4-[4-({[3-(trifluoromethoxy)phenyl]methyl}carbamoyl)-1H-1,2,3-triazol-1-yl]butyl}-1,2-dihydropyridin-4-yl)carbamate]
EC50 [1]: 100 to 500 nM
IC50 [2]: < 100 nM

SMILES: O=C(CC1CCCCC1)Nc1ccn(CCCCn2cc(C(=O)NCc3cccc(OC(F)(F)F)c3)nn2)c(=O)c1 [Example 45, 1-{4-[4-(2-cyclohexylacetamido)-2-oxo-1,2-dihydropyridin-1-yl]butyl}-N-{[3-(trifluoromethoxy)phenyl]methyl}-1H-1,2,3-triazole-4-carboxamide]
EC50 [1]: < 100 nM
IC50 [2]: < 100 nM

SMILES: O=C(CC1CCOC1)Nc1ccn(CCCCn2cc(C(=O)NCc3cccc(OC(F)(F)F)c3)nn2)c(=O)c1 (centres unmarked) [Example 47, 1-(4-{2-oxo-4-[2-(oxolan-3-yl)acetamido]-1,2-dihydropyridin-1-yl}butyl)-N-{[3-(trifluoromethoxy)phenyl]methyl}-1H-1,2,3-triazole-4-carboxamide]
EC50 [1]: 500 to 5000 nM
IC50 [2]: < 100 nM

SMILES: O=C(NCc1ccccn1)c1ccn(CCCCn2cc(C(=O)NCc3cccc(OC(F)(F)F)c3)nn2)c(=O)c1 [Example 49, 2-oxo-N-(pyridin-2-ylmethyl)-1-{4-[4-({[3-(trifluoro-methoxy)phenyl]methyl}carbamoyl)-1H-1,2,3-triazol-1-yl]butyl}-1,2-dihydropyridine-4-carboxamide]
EC50 [1]: 500 to 5000 nM
IC50 [2]: 100 to 500 nM

Second part, the molecule after the results:

EC50 [1]: 500 to 5000 nM
IC50 [2]: < 100 nM
SMILES: O=C(Cc1ccccc1)Nc1ccn(CCCCc2nnc(NC(=O)Cc3ccccc3)s2)c(=O)c1 [Example 31, N-(2-oxo-1-{4-[5-(2-phenylacetamido)-1,3,4-thiadiazol-2-yl]butyl}-1,2-dihydropyridin-4-yl)-2-phenylacetamide]

EC50 [1]: > 5000 nM
IC50 [2]: 100 to 500 nM
SMILES: O=C(Cc1ccccc1)Nc1ccn(CCCCn2cc(C(=O)NCc3ccccn3)nn2)c(=O)c1 [Example 34, 1-{4-[2-oxo-4-(2-phenylacetamido)-1,2-dihydropyridin-1-yl]butyl}-N-(pyridin-2-ylmethyl)-1H-1,2,3-triazole-4-carboxamide]

EC50 [1]: > 5000 nM
IC50 [2]: 500 to 5000 nM
SMILES: CC(C)CNC(=O)c1cn(CCCCn2ccc(NC(=O)Cc3ccccc3)cc2=O)nn1 [Example 35, N-(2-methylpropyl)-1-{4-[2-oxo-4-(2-phenylacetamido)-1,2-dihydropyridin-1-yl]butyl}-1H-1,2,3-triazole-4-carboxamide]

EC50 [1]: > 5000 nM
IC50 [2]: 500 to 5000 nM
SMILES: CC(C)CC(=O)Nc1ccn(CCCCn2cc(C(=O)NCc3cccnc3)nn2)c(=O)c1 [Example 37, 1-{4-[4-(3-methylbutanamido)-2-oxo-1,2-dihydropyridin-1-yl]butyl}-N-(pyridin-3-ylmethyl)-1H-1,2,3-triazole-4-carboxamide]

EC50 [1]: 500 to 5000 nM
IC50 [2]: 100 to 500 nM
SMILES: CC(C)CC(=O)Nc1ccn(CCCCn2cc(C(=O)NCC3CCCCC3)nn2)c(=O)c1 [Example 39, N-(cyclohexylmethyl)-1-{4-[4-(3-methylbutanamido)-2-oxo-1,2-dihydropyridin-1-yl]butyl}-1H-1,2,3-triazole-4-carboxamide]

EC50 [1]: 500 to 5000 nM
IC50 [2]: 100 to 500 nM
SMILES: CNC(=O)c1cn(CCCCn2ccc(NC(=O)Cc3cccc(OC(F)(F)F)c3)cc2=O)nn1 [Example 40, N-methyl-1-[4-(2-oxo-4-{2-[3-(trifluoromethoxy)phenyl]acetamido}-1,2-dihydropyridin-1-yl)butyl]-1H-1,2,3-triazole-4-carboxamide]

EC50 [1]: 100 to 500 nM
IC50 [2]: < 100 nM
SMILES: CC(C)OC(=O)Nc1ccn(CCCCn2cc(C(=O)NCc3cccc(OC(F)(F)F)c3)nn2)c(=O)c1 [Example 43, propan-2-yl N-(2-oxo-1-{4-[4-({[3-(trifluoromethoxy)phenyl]methyl}carbamoyl)-1H-1,2,3-triazol-1-yl]butyl}-1,2-dihydropyridin-4-yl)carbamate]

EC50 [1]: < 100 nM
IC50 [2]: < 100 nM
SMILES: O=C(Nc1ccn(CCCCn2cc(C(=O)NCc3cccc(OC(F)(F)F)c3)nn2)c(=O)c1)OC1CCCCC1 [Example 44, cyclohexyl N-(2-oxo-1-{4-[4-({[3-(trifluoromethoxy)phenyl]methyl}carbamoyl)-1H-1,2,3-triazol-1-yl]butyl}-1,2-dihydropyridin-4-yl)carbamate]

EC50 [1]: > 5000 nM
IC50 [2]: 100 to 500 nM
SMILES: Cn1cc(CC(=O)Nc2ccn(CCCCn3cc(C(=O)NCc4cccc(OC(F)(F)F)c4)nn3)c(=O)c2)cn1 [Example 46, 1-(4-{4-[2-(1-methyl-1H-pyrazol-4-yl)acetamido]-2-oxo-1,2-dihydropyridin-1-yl}butyl)-N-{[3-(trifluoromethoxy)phenyl]methyl}-1H-1,2,3-triazole-4-carboxamide]

EC50 [1]: 500 to 5000 nM
IC50 [2]: < 100 nM
SMILES: O=C(CC1CCOCC1)Nc1ccn(CCCCn2cc(C(=O)NCc3cccc(OC(F)(F)F)c3)nn2)c(=O)c1 [Example 48, 1-(4-{4-[2-(oxan-4-yl)acetamido]-2-oxo-1,2-dihydropyridin-1-yl}butyl)-N-{[3-(trifluoromethoxy)phenyl]methyl}-1H-1,2,3-triazole-4-carboxamide]
